The target of test [1] is T1, Gamma-aminobutyric acid receptor subunit alpha-5 (Homo sapiens, UniProt P31644).
T1 sequence (P31644 whole entry): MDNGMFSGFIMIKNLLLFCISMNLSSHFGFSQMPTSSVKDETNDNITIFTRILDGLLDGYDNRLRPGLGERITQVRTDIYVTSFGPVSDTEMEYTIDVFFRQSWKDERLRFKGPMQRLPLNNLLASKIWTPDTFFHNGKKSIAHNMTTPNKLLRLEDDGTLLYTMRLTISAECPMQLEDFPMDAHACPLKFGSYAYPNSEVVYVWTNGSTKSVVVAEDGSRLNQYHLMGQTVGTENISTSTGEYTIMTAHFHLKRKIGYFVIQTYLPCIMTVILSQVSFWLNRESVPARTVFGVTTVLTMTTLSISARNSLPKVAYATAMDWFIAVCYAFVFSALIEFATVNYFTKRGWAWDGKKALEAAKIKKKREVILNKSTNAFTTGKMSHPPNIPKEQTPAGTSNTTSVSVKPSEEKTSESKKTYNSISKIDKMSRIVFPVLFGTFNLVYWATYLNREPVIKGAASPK

In test [2] the target is T2, Gamma-aminobutyric acid receptor subunit alpha-3 (Homo sapiens, UniProt P34903).
T2 sequence (P34903 whole entry): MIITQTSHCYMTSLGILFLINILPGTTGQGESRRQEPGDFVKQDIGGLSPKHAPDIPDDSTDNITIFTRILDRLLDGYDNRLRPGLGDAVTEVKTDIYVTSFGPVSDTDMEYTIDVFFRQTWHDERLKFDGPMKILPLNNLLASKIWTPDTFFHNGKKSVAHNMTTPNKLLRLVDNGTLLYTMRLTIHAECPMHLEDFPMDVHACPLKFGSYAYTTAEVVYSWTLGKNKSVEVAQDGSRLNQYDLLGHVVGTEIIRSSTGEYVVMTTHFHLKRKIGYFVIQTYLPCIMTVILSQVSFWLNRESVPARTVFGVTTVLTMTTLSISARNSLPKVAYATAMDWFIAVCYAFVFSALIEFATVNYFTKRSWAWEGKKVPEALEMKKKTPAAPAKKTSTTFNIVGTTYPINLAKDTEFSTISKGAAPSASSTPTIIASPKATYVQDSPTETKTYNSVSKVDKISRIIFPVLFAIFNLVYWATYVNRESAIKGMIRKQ

The target of test [3] is T3, Gamma-aminobutyric acid receptor subunit alpha-1 (Homo sapiens, UniProt P14867).
T3 sequence (P14867 whole entry): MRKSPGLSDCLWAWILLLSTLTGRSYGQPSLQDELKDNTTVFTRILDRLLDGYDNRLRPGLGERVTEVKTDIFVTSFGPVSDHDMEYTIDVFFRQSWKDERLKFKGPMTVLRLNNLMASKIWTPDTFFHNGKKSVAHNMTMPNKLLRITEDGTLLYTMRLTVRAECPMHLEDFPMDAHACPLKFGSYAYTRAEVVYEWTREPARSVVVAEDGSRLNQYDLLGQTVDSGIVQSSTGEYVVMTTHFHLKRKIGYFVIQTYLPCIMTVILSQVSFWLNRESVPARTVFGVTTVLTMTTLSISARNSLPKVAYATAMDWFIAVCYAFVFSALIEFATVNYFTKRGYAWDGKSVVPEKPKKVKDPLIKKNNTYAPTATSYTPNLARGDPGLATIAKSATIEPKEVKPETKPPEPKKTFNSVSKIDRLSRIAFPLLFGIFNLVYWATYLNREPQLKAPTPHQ

In test [4] the target is T4, Gamma-aminobutyric acid receptor subunit alpha-2 (Homo sapiens, UniProt P47869).
T4 sequence (P47869 whole entry): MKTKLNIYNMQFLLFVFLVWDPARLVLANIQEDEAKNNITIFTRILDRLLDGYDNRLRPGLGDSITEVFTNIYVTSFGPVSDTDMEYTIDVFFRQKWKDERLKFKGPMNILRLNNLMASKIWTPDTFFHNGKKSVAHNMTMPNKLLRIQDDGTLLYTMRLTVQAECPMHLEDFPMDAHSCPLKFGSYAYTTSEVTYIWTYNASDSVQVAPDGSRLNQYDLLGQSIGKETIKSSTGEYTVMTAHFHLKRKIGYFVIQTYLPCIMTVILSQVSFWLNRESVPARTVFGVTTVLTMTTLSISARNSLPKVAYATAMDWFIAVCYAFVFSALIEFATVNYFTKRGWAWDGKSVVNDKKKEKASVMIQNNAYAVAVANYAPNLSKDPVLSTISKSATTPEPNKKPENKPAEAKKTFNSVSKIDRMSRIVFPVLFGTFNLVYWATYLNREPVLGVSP

For the molecule `CC(C)c1nc(-c2ncn3c2CN(C)C(=O)c2c(Cl)cccc2-3)no1` [FG 8205], the Ki in test [1] is 6.4 nM; in test [2], 6.4 nM; in test [3], 2.3 nM; in test [4], 3.7 nM.
Regarding `Cc1ccc(-c2nc3ccc(C)cn3c2CC(=O)N(C)C)cc1` [Ambien], the Ki in test [1] was above 10000 nM.
In test [2], `Cc1nnc2n1-c1ccc(Cl)cc1C(c1ccccc1Cl)=NC2` [Halcion] displayed an inhibition constant (Ki) of 3 nM.
As to `CC(C)(C)OC(=O)c1ncn2c1C1CCCN1C(=O)c1c(Br)cccc1-2` (stereo not given) [8-Bromo-7-oxo-3b,4,5,6-tetrahydro-7H-2,6a,11b-triaza-benzo[g]cyclopenta[e]azulene-3-carboxylic acid tert-butyl ester], the inhibition constant Ki turned out to be 2.4 nM in test [1], 1.3 nM in test [2], 1.2 nM in test [3] and 1.2 nM in test [4].
In the case of `COC(=O)c1cc2c(cn1)[nH]c1ccccc12`, the Ki in test [1] stood at 76.4 nM; in test [2] it was 9.2 nM; in test [3] it was 2.2 nM; in test [4], 6.5 nM.
Consider `COCc1c(C(=O)OC(C)C)ncc2[nH]c3ccc(OCc4ccccc4)cc3c12`, for which the values for the Ki in test [1], in test [2] and in test [4] were 8.4 nM, 7.1 nM and 4.4 nM, respectively.
For the molecule `Cc1nnc2ccc(-c3cccc(C(F)(F)F)c3)nn12`, the Ki was found to be 1150 nM in test [1], 3140 nM in test [2], 290 nM in test [3] and 2900 nM in test [4].
In the case of `CCOC(=O)c1ncn2c1CN(C)C(=O)c1cc(N=[N+]=[N-])ccc1-2` [RO-154513], the inhibition constant Ki was 0.7 nM in test [1], 7.8 nM in test [2], 10 nM in test [3] and 10.4 nM in test [4].

The values are drawn from BindingDB's records for PubMed 8391122 (Merck Sharp & Dohme Research Laboratories, 1993).
